Data as given in US4518586A, “GRF Analogs III” (The Salk Institute for Biological Studies, priority 1983, dated 1985).
Square brackets hold non-standard residues; d marks the D form. Peptide text beside a SMILES is read from it. Nle = CCCC[C@H](N)C(=O)O

Key:
[1] = test system: cells of rat pituitary glands; assay: in vitro assay of growth hormone release from cultured rat pituitary cells, side-by-side with hpGRF(1-40)-OH standard; assay type: cell-based; conditions: for Comparison %: GH release at equimolar concentrations relative to synthetic hpGRF(1-40)-OH standard (100%), incubation 3 to 4 hours, ir GH by radioimmunoassay
Protocol: To determine the effectiveness of the various synthetic peptides to promote the release of growth hormone, in vitro assays are carried out using synthetic hpGRF(1-40)-OH as a standard in side-by-side comparison with equimolar concentrations of the various other analogs and fragments synthesized. Cultures are used which include cells of rat pituitary glands removed some three to five days previously. Cultures which are considered optimal for the secretion of growth hormone are used for the comparative testing, in the general manner described in Vale et al. Endocrinology, 91, 562-572 (1972) and as more particularly described in Vale et al. Endocrinology, (1983), in press. Incubation with the substance to be tested is carried out for 3 to 4 hours, and aliquots of the culture medium are removed and processed to measure their contents in immunoreactive GH(ir GH) by a well-characterized radioimmunoassay.

[2] = test system: freely running normal male rats; assay: in vivo GH secretion after injection through indwelling catheter in FLA-63-pretreated rats; design: species or system rat; conditions: male rats pretreated with FLA-63
Protocol: In addition to the in vitro tests for secretion of growth hormone, in vivo experiments inject the synthetic peptides through an indwelling catheter into freely running normal male rats after pretreating them with FLA-63, a dopamine hydroxylase inhibitor that suppresses spontaneous GH secretion without affecting the response to exogenous GRF. Blood samples are taken through the same catheter immediately prior to and 5 and 20 minutes after injections. […] Dosages between about 100 nanograms and about 50 micrograms of these peptides per Kg. of body weight are considered to be effective in causing GH secretion.

Compound	Comparison % [1] [%]	duration compared with rGRF(1-29)-NH2 ([2]; GH levels in blood)	stimulation of the secretion of pituitary GH (GH levels in blood) ([2]; blood samples prior to and 5 and 20 minutes after injection, radioimmunoassay)	maximum effective concentration ([1]; in vitro GH secretion)
CCCC[C@H](NC(=O)[C@@H](NC(=O)[C@@H](CCC(=O)O)NC(=O)[C@H](Cc1c[nH]cn1)NC(=O)[C@H](CC(C)C)NC(=O)[C@H](CC(C)C)NC(=O)[C@H](CCCCN)NC(=O)[C@H](CCCNC(=N)N)NC(=O)[C@H](C)NC(=O)[C@H](Cc1ccc(O)cc1)NC(=O)[C@H](CC(C)C)NC(=O)[C@H](CCC(N)=O)NC(=O)CNC(=O)[C@H](CC(C)C)NC(=O)[C@@H](NC(=O)[C@H](CCCNC(=N)N)NC(=O)[C@H](CCCNC(=N)N)NC(=O)[C@H](Cc1ccc(O)cc1)NC(=O)[C@H](CO)NC(=O)[C@H](CO)NC(=O)[C@@H](NC(=O)[C@H](Cc1ccccc1)NC(=O)[C@@H](NC(=O)[C@H](C)NC(=O)[C@H](CC(=O)O)NC(=O)[C@H](C)NC(=O)[C@@H](N)Cc1c[nH]cn1)[C@@H](C)CC)[C@@H](C)O)[C@@H](C)CC)[C@@H](C)CC)C(=O)N[C@@H](CC(N)=O)C(=O)N[C@@H](CCCNC(=N)N)C(N)=O [[D-Glu^25, Nle^27]-rGRF(1-29)-NH2, H-His-Ala-Asp-Ala-Ile-Phe-Thr-Ser-Ser-Tyr-Arg-Arg-Ile-Leu-Gly-Gln-Leu-Tyr- Ala-Arg-Lys-Leu-Leu-His-D-Glu-Ile-Nle-Asn-Arg-NH2] (H-HADAIFTSSYRRILGQLYARKLLH[dE]I[Nle]NR-NH2)	125	–	–	–
CCCC[C@H](NC(=O)[C@@H](NC(=O)[C@H](CCC(=O)O)NC(=O)[C@H](Cc1c[nH]cn1)NC(=O)[C@@H](CC(C)C)NC(=O)[C@H](CC(C)C)NC(=O)[C@H](CCCCN)NC(=O)[C@H](CCCNC(=N)N)NC(=O)[C@H](C)NC(=O)[C@H](Cc1ccc(O)cc1)NC(=O)[C@H](CC(C)C)NC(=O)[C@H](CCC(N)=O)NC(=O)CNC(=O)[C@H](CC(C)C)NC(=O)[C@@H](NC(=O)[C@H](CCCNC(=N)N)NC(=O)[C@H](CCCNC(=N)N)NC(=O)[C@H](Cc1ccc(O)cc1)NC(=O)[C@H](CO)NC(=O)[C@H](CO)NC(=O)[C@@H](NC(=O)[C@H](Cc1ccccc1)NC(=O)[C@@H](NC(=O)[C@H](C)NC(=O)[C@H](CC(=O)O)NC(=O)[C@H](C)NC(=O)[C@@H](N)Cc1c[nH]cn1)[C@@H](C)CC)[C@@H](C)O)[C@@H](C)CC)[C@@H](C)CC)C(=O)N[C@@H](CC(N)=O)C(=O)N[C@@H](CCCNC(=N)N)C(N)=O [[D-Leu^23, Nle^27]-rGRF(1-29)-NH2, H-His-Ala-Asp-Ala-Ile-Phe-Thr-Ser-Ser-Tyr-Arg-Arg-Ile-Leu-Gly-Gln-Leu-Tyr- Ala-Arg-Lys-Leu-D-Leu-His-Glu-Ile-Nle-Asn-Arg-NH2] (H-HADAIFTSSYRRILGQLYARKL[dL]HEI[Nle]NR-NH2)	160	substantially longer duration	powerful stimulators of the secretion of pituitary GH	–
[D-Leu^23, Nle^27 ]-hpGRF(1-29)-NH2	–	–	–	about 1 nanomolar
